The values below come from patent US4923986A, “Derivatives of physiologically active substance K-252” (Kyowa Hakko Kogyo Co., Ltd., priority 1988, dated 1990).

Values after ≈ are worked out from the molar mass of the structure shown. Some results are limits rather than exact numbers.

For orientation: IC50 means the concentration needed to halve the response being measured.

The first test addresses C-kinase (protein kinase C). In words: C-Kinase inhibitory activity test. Format: biochemical. The note with it: enzyme activity inhibited 50%.
As for `COC(=O)[C@@]1(O)C[C@H]2O[C@]1(C)n1c3ccccc3c3c4c(c5c6cc(N)ccc6n2c5c31)C(=O)NC4` (relative stereo) [Compound 9], the “C-Kinase inhibitory activity IC50” value amounted to 0.175 µg/mL.

`COC(=O)[C@@]1(O)C[C@H]2O[C@]1(C)n1c3ccc(N)cc3c3c4c(c5c6cc(N)ccc6n2c5c31)C(=O)NC4` (relative stereo) [Compound 10]: the “C-Kinase inhibitory activity IC50” value is 0.02 µg/mL.

Regarding `COC(=O)[C@@]1(O)C[C@H]2O[C@]1(C)n1c3ccc(O)cc3c3c4c(c5c6cc(O)ccc6n2c5c31)C(=O)NC4` (relative stereo) [Compound 16], the “C-Kinase inhibitory activity IC50” value amounted to 0.005 µg/mL.

Regarding `C[C@]12O[C@H](C[C@]1(O)CO)n1c3ccc(O)cc3c3c4c(c5c6ccccc6n2c5c31)CNC4=O` (relative stereo) [Compound 21], the “C-Kinase inhibitory activity IC50” value was determined as 0.01 µg/mL.

As for `C[C@]12O[C@H](C[C@]1(O)CO)n1c3ccc(N)cc3c3c4c(c5c6ccccc6n2c5c31)CNC4=O` (relative stereo) [Compound 23], the “C-Kinase inhibitory activity IC50” value came to 0.038 µg/mL.

Take `C[C@]12O[C@H](C[C@]1(O)COC(=O)CCC(=O)O)n1c3ccccc3c3c4c(c5c6ccccc6n2c5c31)CNC4=O` (relative stereo) [Compound 27]: the “C-Kinase inhibitory activity IC50” value was 0.017 µg/mL.

With `C[C@]12O[C@H](C[C@]1(O)CNCC(=O)O)n1c3ccccc3c3c4c(c5c6ccccc6n2c5c31)CNC4=O` (relative stereo) [Compound 32], the “C-Kinase inhibitory activity IC50” value amounted to 0.01 µg/mL.

For `CC12OC(CC1(O)CN1CCOCC1)n1c3ccccc3c3c4c(c5c6ccccc6n2c5c31)CNC4=O` (stereo not drawn) [Compound 38], the “C-Kinase inhibitory activity IC50” value turned out to be 0.10 µg/mL.

Consider `CC12OC(CC1(O)C=NO)n1c3ccccc3c3c4c(c5c6ccccc6n2c5c31)CNC4=O` (stereo not drawn) [Compound 50], for which the “C-Kinase inhibitory activity IC50” value stood at 0.013 µg/mL.

Turning to `CC12OC(CC1(O)CO)n1c3ccccc3c3c4c(c5c6ccccc6n2c5c31)C(=O)NC4=O` (stereo not drawn) [Compound 67], the “C-Kinase inhibitory activity IC50” value amounted to 0.016 µg/mL.

For the next test, the system named is HeLaS3 cells. The experiment in a line: HeLaS3 cell growth inhibition test. The class given is cell-based. Conditions: Homo sapiens, HeLa S3; HeLaS3 cells, contact for 72 hours; read-out: cell growth inhibitory activity IC50, HeLaS3. How it is done: (§1) Compound (I) was examined for C-kinase inhibitory activity and cell growth inhibitory activity by the following method.
(§2) MCF 7 cells (4.5×10^4 cells/ml) prepared in RPMI 1640 medium containing 10% fetal calf serum, 10 μg/ml insulin and 10^-8 M estradiol are put into wells of a 96-well microtiter plate in the amount of 0.1 ml per each well. After incubation at 37° C. overnight in CO2 -incubator, 0.05 ml each of a test sample appropriately diluted with the culture medium is added to each well. In the case of contact for 72 hours, the cells are further cultured in CO2 -incubator, and then the culture supernatant is removed and the wells are washed once with PBS(-). Thereafter, 0.1 ml of fresh medium is added to each well, followed by culturing at 37° C. for 72 hours in CO2 -incubator. After the culture supernatant is removed, 0.1 ml of the culture medium containing 0.02% Neutral Red is added to each well, followed by culturing at 37° C. for one hour in CO2 -incubator, whereby the cells are stained. Then, the culture supernatant is removed and the cells are washed once with physiological saline. The pigment is extracted with 0.001N HCl/30% ethanol and absorption is measured at 550 nm with a microplate reader. By comparing the absorption of intact cells with those of the cells treated with a test compound in known concentrations, the concentration of the test compound at which growth of the cells is inhibited 50% is calculated as IC50.
(3) HeLaS3 cell growth inhibition test:
HeLaS3 cells (3×10^4 cells/ml) prepared in MEM medium containing 10% fetal calf serum and 2 mM glutamine are put into wells of a 96-well microtiter plate in the amount of 0.1 ml per each well.
Thereafter, the test is carried out in the same manner as in (1).
On to `COC(=O)[C@@]1(O)C[C@H]2O[C@]1(C)n1c3ccccc3c3c4c(c5c6cc(N)ccc6n2c5c31)C(=O)NC4` (relative stereo) [Compound 9], for which the IC50 came out at 0.01 µg/mL (≈ 0.0207 µM).

As for `COC(=O)[C@@]1(O)C[C@H]2O[C@]1(C)n1c3ccc(N)cc3c3c4c(c5c6cc(N)ccc6n2c5c31)C(=O)NC4` (relative stereo) [Compound 10], the IC50 was found to be 0.07 µg/mL (≈ 0.141 µM).

Take `COC(=O)[C@@]1(O)C[C@H]2O[C@]1(C)n1c3ccccc3c3c4c(c5c6cccc(N)c6n2c5c31)C(=O)NC4` (relative stereo) [Compound 11]: the IC50 was 0.1 µg/mL (≈ 0.207 µM).

As to `COC(=O)[C@@]1(O)C[C@H]2O[C@]1(C)n1c3ccccc3c3c4c(c5c6cc(N(C)C)ccc6n2c5c31)C(=O)NC4` (relative stereo) [Compound 12], the IC50 came out at 0.17 µg/mL (≈ 0.333 µM).

In the case of `COC(=O)[C@@]1(O)C[C@H]2O[C@]1(C)n1c3ccc(O)cc3c3c4c(c5c6cc(O)ccc6n2c5c31)C(=O)NC4` (relative stereo) [Compound 16], the IC50 was found to be 0.44 µg/mL (≈ 0.881 µM).

For `C[C@]12O[C@H](C[C@]1(O)CO)n1c3ccc(O)cc3c3c4c(c5c6ccccc6n2c5c31)CNC4=O` (relative stereo) [Compound 21], the IC50 is 0.46 µg/mL (≈ 1.01 µM).

With `C[C@]12O[C@H](C[C@]1(O)CO)n1c3ccc(N)cc3c3c4c(c5c6ccccc6n2c5c31)CNC4=O` (relative stereo) [Compound 23], the IC50 turned out to be 0.15 µg/mL (≈ 0.33 µM).

Consider `C[C@]12O[C@H](C[C@]1(O)CO)n1c3ccc(Br)cc3c3c4c(c5c6ccccc6n2c5c31)CNC4=O` (relative stereo) [Compound 24], for which the IC50 came to 0.06 µg/mL (≈ 0.116 µM).

`C[C@]12O[C@H](C[C@]1(O)COC(=O)CCC(=O)O)n1c3ccccc3c3c4c(c5c6ccccc6n2c5c31)CNC4=O` (relative stereo) [Compound 27]: the IC50 worked out at 0.53 µg/mL (≈ 0.982 µM).

`C[C@]12O[C@H](C[C@]1(O)CNCC(=O)O)n1c3ccccc3c3c4c(c5c6ccccc6n2c5c31)CNC4=O` (relative stereo) [Compound 32]: the IC50 came out at 0.22 µg/mL (≈ 0.443 µM).

Consider `CC12OC(CC1(O)CN1CCOCC1)n1c3ccccc3c3c4c(c5c6ccccc6n2c5c31)CNC4=O` (stereo not drawn) [Compound 38], for which the IC50 turned out to be 0.18 µg/mL (≈ 0.354 µM).

For `CC12OC(CC1(O)C=NO)n1c3ccccc3c3c4c(c5c6ccccc6n2c5c31)CNC4=O` (stereo not drawn) [Compound 50], the IC50 is 0.22 µg/mL (≈ 0.486 µM).

Regarding `CC12OC(CC1(O)CO)n1c3ccccc3c3c4c(c5c6ccccc6n2c5c31)C(=O)NC4=O` (stereo not drawn) [Compound 67], the IC50 is 0.95 µg/mL (≈ 2.1 µM).

The next test deals with MCF 7 cells. The experiment in a line: MCF 7 cell growth inhibition test. The class given is cell-based. The note with it: Homo sapiens, MCF7; MCF-7 cells, contact for 72 hours; read-out: cell growth inhibitory activity IC50, MCF-7. As for the experimental part:
as §1
(1) MCF 7 cell growth inhibition test:
as §2
As for `COC(=O)[C@@]1(O)C[C@H]2O[C@]1(C)n1c3ccccc3c3c4c(c5c6cc(N)ccc6n2c5c31)C(=O)NC4` (relative stereo) [Compound 9], the IC50 was determined as 0.13 µg/mL (≈ 0.269 µM).

As for `COC(=O)[C@@]1(O)C[C@H]2O[C@]1(C)n1c3ccc(N)cc3c3c4c(c5c6cc(N)ccc6n2c5c31)C(=O)NC4` (relative stereo) [Compound 10], the IC50 turned out to be 0.95 µg/mL (≈ 1.91 µM).

Turning to `COC(=O)[C@@]1(O)C[C@H]2O[C@]1(C)n1c3ccccc3c3c4c(c5c6cccc(N)c6n2c5c31)C(=O)NC4` (relative stereo) [Compound 11], the IC50 amounted to 0.47 µg/mL (≈ 0.974 µM).

As for `COC(=O)[C@@]1(O)C[C@H]2O[C@]1(C)n1c3ccccc3c3c4c(c5c6cc(N(C)C)ccc6n2c5c31)C(=O)NC4` (relative stereo) [Compound 12], the IC50 was determined as 0.36 µg/mL (≈ 0.705 µM).

For the compound `COC(=O)[C@@]1(O)C[C@H]2O[C@]1(C)n1c3ccc(O)cc3c3c4c(c5c6cc(O)ccc6n2c5c31)C(=O)NC4` (relative stereo) [Compound 16], the IC50 was determined as 0.84 µg/mL (≈ 1.68 µM).

For `C[C@]12O[C@H](C[C@]1(O)CO)n1c3ccc(O)cc3c3c4c(c5c6ccccc6n2c5c31)CNC4=O` (relative stereo) [Compound 21], the IC50 is 0.76 µg/mL (≈ 1.67 µM).

For the compound `C[C@]12O[C@H](C[C@]1(O)CO)n1c3ccc(N)cc3c3c4c(c5c6ccccc6n2c5c31)CNC4=O` (relative stereo) [Compound 23], the half-maximal inhibitory concentration (IC50) stood at 0.34 µg/mL (≈ 0.748 µM).

`C[C@]12O[C@H](C[C@]1(O)CO)n1c3ccc(Br)cc3c3c4c(c5c6ccccc6n2c5c31)CNC4=O` (relative stereo) [Compound 24]: the IC50 stood at 0.19 µg/mL (≈ 0.367 µM).

On to `C[C@]12O[C@H](C[C@]1(O)COC(=O)CCC(=O)O)n1c3ccccc3c3c4c(c5c6ccccc6n2c5c31)CNC4=O` (relative stereo) [Compound 27], for which the half-inhibitory concentration (IC50) is over 1 µg/mL.

Take `C[C@]12O[C@H](C[C@]1(O)CNCC(=O)O)n1c3ccccc3c3c4c(c5c6ccccc6n2c5c31)CNC4=O` (relative stereo) [Compound 32]: the IC50 amounted to 0.74 µg/mL (≈ 1.49 µM).

In a further test the test system is COLO320DM cells. In words: COLO320DM cell growth inhibition test. The class given is cell-based. The note with it: Homo sapiens, COLO 320DM; COLO320DM cells, cells counted with a microcell counter; read-out: cell growth inhibitory activity IC50, COLO320DM. As for the experimental part:
as §2, with “After” for “MCF 7 cells (4.5×10^4 cells/ml) prepared in RPMI 1640 medium containing 10% fetal calf serum, 10 μg/ml insulin and 10^-8 M estradiol are put into wells of a 96-well microtiter plate in the amount of 0.1 ml per each well. After”, “reader.” for “reader. By comparing the absorption of intact cells with those of the cells treated with a test compound in known concentrations, the concentration of the test compound at which growth of the cells is inhibited 50% is calculated as IC50.”
(4) COLO320DM cell growth inhibition test:
Thereafter, the test is carried out in the same manner as in (1) except that the cells are counted with a microcell counter.
Regarding `COC(=O)[C@@]1(O)C[C@H]2O[C@]1(C)n1c3ccccc3c3c4c(c5c6cc(N)ccc6n2c5c31)C(=O)NC4` (relative stereo) [Compound 9], the IC50 was 0.05 µg/mL (≈ 0.104 µM).

In the case of `COC(=O)[C@@]1(O)C[C@H]2O[C@]1(C)n1c3ccc(N)cc3c3c4c(c5c6cc(N)ccc6n2c5c31)C(=O)NC4` (relative stereo) [Compound 10], the IC50 amounted to 0.1 µg/mL (≈ 0.201 µM).

`COC(=O)[C@@]1(O)C[C@H]2O[C@]1(C)n1c3ccccc3c3c4c(c5c6cccc(N)c6n2c5c31)C(=O)NC4` (relative stereo) [Compound 11]: the IC50 is 0.16 µg/mL (≈ 0.332 µM).

As to `COC(=O)[C@@]1(O)C[C@H]2O[C@]1(C)n1c3ccccc3c3c4c(c5c6cc(N(C)C)ccc6n2c5c31)C(=O)NC4` (relative stereo) [Compound 12], the IC50 turned out to be 0.11 µg/mL (≈ 0.215 µM).

With `C[C@]12O[C@H](C[C@]1(O)CO)n1c3ccc(O)cc3c3c4c(c5c6ccccc6n2c5c31)CNC4=O` (relative stereo) [Compound 21], the concentration for half-maximal inhibition (IC50) stood at 0.29 µg/mL (≈ 0.637 µM).

For `C[C@]12O[C@H](C[C@]1(O)CO)n1c3ccc(N)cc3c3c4c(c5c6ccccc6n2c5c31)CNC4=O` (relative stereo) [Compound 23], the IC50 was found to be 0.22 µg/mL (≈ 0.484 µM).

`C[C@]12O[C@H](C[C@]1(O)CO)n1c3ccc(Br)cc3c3c4c(c5c6ccccc6n2c5c31)CNC4=O` (relative stereo) [Compound 24]: the IC50 turned out to be 0.06 µg/mL (≈ 0.116 µM).

For the compound `C[C@]12O[C@H](C[C@]1(O)COC(=O)CCC(=O)O)n1c3ccccc3c3c4c(c5c6ccccc6n2c5c31)CNC4=O` (relative stereo) [Compound 27], the IC50 was over 1 µg/mL.

Turning to `C[C@]12O[C@H](C[C@]1(O)CNCC(=O)O)n1c3ccccc3c3c4c(c5c6ccccc6n2c5c31)CNC4=O` (relative stereo) [Compound 32], the concentration for half-maximal inhibition (IC50) was over 1 µg/mL.

As for `CC12OC(CC1(O)CN1CCOCC1)n1c3ccccc3c3c4c(c5c6ccccc6n2c5c31)CNC4=O` (stereo not drawn) [Compound 38], the IC50 is 0.3 µg/mL (≈ 0.59 µM).

Take `CC12OC(CC1(O)C=NO)n1c3ccccc3c3c4c(c5c6ccccc6n2c5c31)CNC4=O` (stereo not drawn) [Compound 50]: the IC50 worked out at 0.17 µg/mL (≈ 0.376 µM).

As for `CC12OC(CC1(O)CO)n1c3ccccc3c3c4c(c5c6ccccc6n2c5c31)C(=O)NC4=O` (stereo not drawn) [Compound 67], the IC50 stood at 0.18 µg/mL (≈ 0.397 µM).
